Laboratory results taken from patent publication US10882856B2 (BeiGene, Ltd., priority 2017, dated 2021).

What was measured:
IDO1 [1] = molecular target: T1, IDO1 (Homo sapiens, UniProt P14902); experiment: Hela cell-based IDO1 assay; conditions: Hela cells
Summary of the method: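 HeLa cells were seeded at 8000 per well in 96-well plates in phenol red-free DMEM with 10% FBS. After 4 hours, DMSO-diluted compound dilutions were added with IFN-γ (final 100 ng/mL) and 0.4 mM L-Trp, and cells were kept 48 hours at 37 °C, 5% CO2. Supernatant was deproteinised with trichloroacetic acid, and kynurenine was measured at 480 nm after adding 2% 4-(dimethylamino)benzaldehyde. Potency came from four-parameter logistic fits in XLfit.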

IDO1 [2] = molecular target: T1, IDO1; experiment: IDO1 enzymatic assay; assay type: biochemical; design: His tag (N); made in house; host or cells: E. coli; conditions: read-out: Enzyme IC50 IDO1
Summary of the method: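 Compound was incubated with 50 nM His-tagged IDO1 from E. coli, 1.3 mM D-tryptophan, 5 mM L-ascorbic acid, methylene blue and 0.4 mg/mL catalase in 50 mM potassium phosphate pH 7.5, 0.1% BSA, at 24 °C for 1.5 hours. Activity was the slope of N'-formylkynurenine formation read continuously at 321 nm for 1 hour. IC50 was obtained from remaining activity versus compound concentration.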

[3] = molecular target: T2, cellular TDO2 in HEK293-TDO2 cells (Homo sapiens, UniProt P48775); experiment: 293-TDO2 cell-based assay (Kyn colorimetric); conditions: 48 hours of incubation
T2 construct: expressed in transfected cells; host or cells: HEK293 (ATCC), stably transfected
T2 sequence (P48775 whole entry): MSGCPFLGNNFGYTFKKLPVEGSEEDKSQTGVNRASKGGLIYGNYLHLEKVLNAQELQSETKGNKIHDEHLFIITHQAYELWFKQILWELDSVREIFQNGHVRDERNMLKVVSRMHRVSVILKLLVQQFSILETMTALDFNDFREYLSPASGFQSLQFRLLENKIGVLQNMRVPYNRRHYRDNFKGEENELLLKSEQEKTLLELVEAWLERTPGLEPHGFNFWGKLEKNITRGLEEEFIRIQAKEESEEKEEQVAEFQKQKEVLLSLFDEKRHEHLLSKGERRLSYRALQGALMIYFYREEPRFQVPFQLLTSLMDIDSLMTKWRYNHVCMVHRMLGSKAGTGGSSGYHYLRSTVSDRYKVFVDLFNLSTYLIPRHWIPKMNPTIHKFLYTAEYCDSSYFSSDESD
Description: The inhibitory activity of TDO2 inhibitors is determined by using a colorimetric reaction to measure Kyn generated from L-Trp (L-Tryptophon) oxidation by cellular TDO2 in HEK293-TDO2 cells stably transfected with a plasmid expression of Tryptophan 2,3-dioxygenase (for short, 293-TDO2).
HEK293 cells were obtained from the American Type Culture Collection and 293-TDO2 were recovered in 10% FBS-containing phenol red-free DMEM medium. Cells were plated onto a 96-well plate (100 μl/well) at 10000 cells per well and kept at 37° C. in a humidified incubator supplied with 5% CO2. 4 hours later, Compounds at different concentrations diluted in dimethylsulfoxide (DMSO) were added to plate. Cells were kept at 37° C. in a humidified incubator supplied with 5% CO2. After 48 hours of incubation, 100 μl supernatant from each well was removed to a new plate. The protein in the medium was precipitated with the addition of 8 μl 6N trichloroacetic acid. The plate was incubated at 60° C. for 30 minutes and then centrifugation at 2500 rpm for 10 minutes to remove sediments. 80 μl supernatants were carefully removed to a new clean plate and added with an equal volume of 2% 4-(Dimethylamino) benzaldehyde (D2004, sigma) dissolved in glacial acetic acid. The absorbance at 480 nm wavelength derived from Kyn was measured using a PHERAstar FS plate reader (BMG LABTECH). The IC50 for each compound was derived from fitting the dose-response data to the four-parameter logistic model by using XLfit software (IDBS).

T1 sequence (P14902 whole entry): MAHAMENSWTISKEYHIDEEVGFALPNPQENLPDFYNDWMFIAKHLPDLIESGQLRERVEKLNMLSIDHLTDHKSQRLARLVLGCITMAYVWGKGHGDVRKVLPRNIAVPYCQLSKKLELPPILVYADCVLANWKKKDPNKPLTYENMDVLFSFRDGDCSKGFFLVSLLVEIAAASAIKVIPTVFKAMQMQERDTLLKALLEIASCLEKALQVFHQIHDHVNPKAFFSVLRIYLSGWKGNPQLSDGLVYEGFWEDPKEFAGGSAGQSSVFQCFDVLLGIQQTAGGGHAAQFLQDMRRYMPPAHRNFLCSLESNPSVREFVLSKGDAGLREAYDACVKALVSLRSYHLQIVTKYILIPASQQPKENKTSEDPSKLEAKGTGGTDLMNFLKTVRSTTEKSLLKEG

| Compound | EC50 (IDO1 [1]) | IC50 (IDO1 [2]) | EC50 [3] |
| --- | --- | --- | --- |
| CC(=O)Nc1ccc([C@H]2CC[C@H]([C@H](O)c3c(C4CC4)ccc4cncn34)CC2)cc1 [Example D159, N-(4-((1S,4r)-4-((S)-(6-cyclopropylimidazo[1,5-a]pyridin-5-yl)hydroxy)methylcyclohexyl)phenyl)acetamide] | 80 nM | 12 nM | > 10000 nM |
| OC(c1c(C2CC2)ccc2cncn12)C1CCC(c2ccccc2Cl)CC1 (stereo not drawn) [Example D117] | 275 nM | 48 nM | > 10000 nM |
| OC(c1c(C2CC2)ccc2cncn12)C1CCN(c2ccc3ncncc3c2)CC1 (stereo not drawn) [Example D181, (6-cyclopropylimidazo[1,5-a]pyridin-5-yl)(1-(quinazolin-6-yl)piperidin-4-yl)methanol] | 1020 nM | 31 nM | > 10000 nM |
| COc1cccc([C@H]2CC[C@H]([C@@H](O)c3c(C(C)C)ccc4cncn34)CC2)c1 (single isomer, unassigned) [Example D169b] | 5950 nM | 7500 nM | > 10000 nM |
| OC(c1c(C2CC2)ccn2cncc12)C1CCN(c2ccc(F)cc2)CC1 (stereo not drawn) [Example C137, (7-cyclopropylimidazo[1,5-a]pyridin-8-yl)(1-(4-fluorophenyl)piperidin-4-yl)methanol] | 177 nM | 79 nM | > 10000 nM |
| OC(c1c(C2CC2)ccc2cncn12)C1CCC(c2ccc(F)c(F)c2F)CC1 (stereo not drawn) [Example D145, (6-cyclopropylimidazo[1,5-a]pyridin-5-yl)(4-(2,3,4-trifluorophenyl)cyclohexyl)methanol] | 462 nM | 54 nM | > 10000 nM |
| Oc1ccc([C@H]2CC[C@H]([C@@H](O)c3c(C4CC4)ccc4cncn34)CC2)cc1 [Example D106b, 4-((1R,4r)-4-((R)-(6-cyclopropylimidazo [1,5-a]pyridin-5-yl)(hydroxy)methyl)cyclohexyl)phenol] | 2580 nM | 1100 nM | > 10000 nM |
| OC(c1c(C2CC2)ccn2cncc12)C1CCC(c2ccc(Cl)cc2)CC1 (racemic) [Example C102, (4-(4-chlorophenyl)cyclohexyl)(7-cyclopropylimidazo[1,5-a]pyridin-8-yl)methanol] | 261 nM | 100 nM | > 10000 nM |

More lines, now with the values ahead:

| EC50 (IDO1 [1]) | IC50 (IDO1 [2]) | EC50 [3] | Compound |
| --- | --- | --- | --- |
| 7.7 nM | 12 nM | > 10000 nM | O[C@H](c1c(C2CC2)ccc2cncn12)C1CCN(c2ccc(F)c3ncccc23)CC1 (single isomer, unassigned) [Example D175a] |
| 148 nM | 39 nM | > 10000 nM | OC(c1c(C2CC2)ccn2cncc12)C1CCC(c2ccc(OC3CCOCC3)cc2)CC1 (stereo not drawn) [Example C119, (7-cyclopropylimidazo[1,5-a]pyridin-8-yl)(4-(4-((tetrahydro-2H-pyran-4-yl)oxy)phenyl)cyclohexyl)methanol] |
| > 10000 nM | 9400 nM | > 10000 nM | COc1ccc([C@H]2CC[C@H]([C@@H](O)c3c(C4CC4)ccn4cncc34)CC2)cc1 [Example C101b, (R)-(7-cyclopropylimidazo[1,5-a]pyridin-8-yl)(4-(4-methoxyphenyl)cyclohexyl)methanol] |
| 127 nM | 19 nM | > 10000 nM | O[C@H](c1c(C2CC2)ccc2cncn12)[C@H]1CC[C@H](c2ccc(Cl)c(F)c2)CC1 (single isomer, unassigned) [Example D128a] |
| 1480 nM | 30 nM | > 10000 nM | OC(c1c(C2CC2)ccc2cncn12)C1CCC(c2ccc(C(F)(F)F)nc2)CC1 (stereo not drawn) [Example D107, (6-cyclopropylimidazo[1,5-a]pyridin-5-yl)(4-(6-(trifluoromethyl)pyridin-3-yl)cyclohexyl)methanol] |
| 6310 nM | 62 nM | > 10000 nM | OC(c1cc(Cl)cc2cncn12)C1CCC(c2ccc(Cl)cc2)CC1 (stereo not drawn) [Example E101, (7-chloroimidazo[1,5-a]pyridin-5-yl)(4-(4-chlorophenyl)cyclohexyl)methanol] |
